Reference: patent publication US9133158B2, “Bicyclic dihydroisoquinoline-1-one derivatives” (Hoffmann-La Roche Inc., priority 2011, dated 2015)

Tests used:
human CYP11B2 = target: T1, human CYP11B2 (Homo sapiens, UniProt P19099); test: G-402 cellular enzyme assay, human CYP11B2 (aldosterone release, HTRF); type: cell-based; conditions: G-402 cells, 1 μM Deoxycorticosterone
T1 construct: expressed in transfected cells
T1 sequence (P19099 25-503): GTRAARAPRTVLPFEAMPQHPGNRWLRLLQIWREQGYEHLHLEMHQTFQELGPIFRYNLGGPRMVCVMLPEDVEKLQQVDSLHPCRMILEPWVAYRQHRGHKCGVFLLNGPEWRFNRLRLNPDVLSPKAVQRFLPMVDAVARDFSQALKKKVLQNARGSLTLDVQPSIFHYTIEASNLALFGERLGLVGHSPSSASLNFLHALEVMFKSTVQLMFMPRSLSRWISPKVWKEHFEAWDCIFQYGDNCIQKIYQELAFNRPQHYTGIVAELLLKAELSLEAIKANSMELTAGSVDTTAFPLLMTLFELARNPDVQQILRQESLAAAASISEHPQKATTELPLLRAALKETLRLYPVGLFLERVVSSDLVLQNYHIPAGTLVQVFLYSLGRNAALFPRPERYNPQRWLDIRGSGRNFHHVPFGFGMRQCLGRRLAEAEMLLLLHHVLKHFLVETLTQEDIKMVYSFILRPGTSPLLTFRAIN
Procedure, shortened: (§1)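 Supernatant steroid product measured by HTRF (aldosterone for CYP11B2, cortisol for CYP11B1) after 16 h exposure of stably transfected G-402 cells to compound. Substrates were 1 μM deoxycorticosterone and 1 μM deoxycortisol, respectively; EC50 derived from a four-parameter MMF curve fit.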

human CYP11B1 = target: T2, human CYP11B1 (Homo sapiens, UniProt P15538); test: G-402 cellular enzyme assay, human CYP11B1 (cortisol release, HTRF); type: cell-based; conditions: G-402 cells, 1 μM Deoxycortisol
T2 construct: expressed in transfected cells
T2 sequence (P15538 25-503): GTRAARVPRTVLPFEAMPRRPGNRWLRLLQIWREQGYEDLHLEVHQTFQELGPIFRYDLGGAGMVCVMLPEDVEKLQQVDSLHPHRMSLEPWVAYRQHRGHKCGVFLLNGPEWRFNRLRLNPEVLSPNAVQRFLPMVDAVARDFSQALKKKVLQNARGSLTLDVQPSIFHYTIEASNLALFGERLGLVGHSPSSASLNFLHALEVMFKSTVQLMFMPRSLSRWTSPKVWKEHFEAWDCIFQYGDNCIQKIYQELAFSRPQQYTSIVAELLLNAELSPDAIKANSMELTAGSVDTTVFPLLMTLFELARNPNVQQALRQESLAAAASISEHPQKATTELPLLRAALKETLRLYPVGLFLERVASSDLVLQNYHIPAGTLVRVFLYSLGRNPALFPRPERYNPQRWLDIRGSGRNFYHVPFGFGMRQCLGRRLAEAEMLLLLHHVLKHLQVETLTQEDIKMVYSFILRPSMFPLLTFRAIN
Procedure, shortened: as §1

| SMILES | EC50 (human CYP11B2) [nM] | EC50 (human CYP11B1) [µM] |
| --- | --- | --- |
| CC(C)c1nccn1Cc1cncc(N2C(=O)c3ccc(Cl)cc3CC2C)c1 (stereo not shown) [Example 87, 6-Chloro-2-[5-(2-isopropyl-imidazol-1-ylmethyl)-pyridin-3-yl]-3-methyl-3,4-dihydro-2H-isoquinolin-1-one] | 251 | 9.37 |
| CC1Cc2cc(Cl)ccc2C(=O)N1c1cncc(F)c1 (stereo not shown) [Example 89, 6-Chloro-2-(5-fluoro-pyridin-3-yl)-3-methyl-3,4-dihydro-2H-isoquinolin-1-one] | 272 | 16.8 |
| C[C@H]1Cc2cc(Cl)ccc2C(=O)N1c1cccnc1 [Example 92, (S)-6-Chloro-3-methyl-2-pyridin-3-yl-3,4-dihydro-2H-isoquinolin-1-one] | 268 | 11.4 |
| CC1Cc2cccc(Cl)c2C(=O)N1c1cccnc1 (stereo not shown) [Example 93, 8-Chloro-3-methyl-2-pyridin-3-yl-3,4-dihydro-2H-isoquinolin-1-one] | 775 | 14 |
| O=C1c2ccc(Cl)c(Cl)c2CCN1c1cccnc1 [Example 95, 5,6-Dichloro-2-pyridin-3-yl-3,4-dihydro-2H-isoquinolin-1-one] | 327 | 10.3 |
| COc1cncc(N2CCc3nc(Cl)ccc3C2=O)c1 [Example 96, 2-Chloro-6-(5-methoxy-pyridin-3-yl)-7,8-dihydro-6H-[1,6]naphthyridin-5-one] | 45.8 | 0.533 |
| COc1cncc(N2CCc3nc(OC)ccc3C2=O)c1 [Example 97, 2-Methoxy-6-(5-methoxy-pyridin-3-yl)-7,8-dihydro-6H-[1,6]naphthyridin-5-one] | 16.9 | 0.22 |
| COc1ccc2c(n1)CCN(c1cccnc1)C2=O [Example 98, 2-Methoxy-6-pyridin-3-yl-7,8-dihydro-6H-[1,6]naphthyridin-5-one] | 227 | 6.83 |
| COc1cncc(N2CCc3c(ccc(Cl)c3F)C2=O)c1 [Example 99, 6-Chloro-5-fluoro-2-(5-methoxy-pyridin-3-yl)-3,4-dihydro-2H-isoquinolin-1-one] | 901 | 7.27 |
| COc1cncc(N2CCc3cc(Cl)c(F)cc3C2=O)c1 [Example 100, 6-Chloro-7-fluoro-2-(5-methoxy-pyridin-3-yl)-3,4-dihydro-2H-isoquinolin-1-one] | 17.2 | 0.485 |
| O=C1c2cc(F)c(Cl)cc2CCN1c1cccnc1 [Example 101, 6-Chloro-7-fluoro-2-pyridin-3-yl-3,4-dihydro-2H-isoquinolin-1-one] | 104 | 3.54 |
| COc1cncc(N2CC(C)(C)c3cc(Cl)ccc3C2=O)c1 [Example 103, 6-Chloro-2-(5-methoxy-pyridin-3-yl)-4,4-dimethyl-3,4-dihydro-2H-isoquinolin-1-one] | 564 | 11 |
| CC1(C)CN(c2cncc(F)c2)C(=O)c2ccc(Cl)cc21 [Example 104, 6-Chloro-2-(5-fluoro-pyridin-3-yl)-4,4-dimethyl-3,4-dihydro-2H-isoquinolin-1-one] | 2340 | 59.8 |
| CC1CN(c2cccnc2)C(=O)c2ccc(Cl)cc21 (stereo not shown) [Example 105, 6-Chloro-4-methyl-2-pyridin-3-yl-3,4-dihydro-2H-isoquinolin-1-one] | 382 | 4.49 |
| CC1CN(c2cncc(F)c2)C(=O)c2ccc(Cl)cc21 (stereo not shown) [Example 106, 6-Chloro-2-(5-fluoro-pyridin-3-yl)-4-methyl-3,4-dihydro-2H-isoquinolin-1-one] | 516 | 8.56 |
| COc1cncc(N2CC(C)c3cc(Cl)ccc3C2=O)c1 (stereo not shown) [Example 107, 6-Chloro-2-(5-methoxy-pyridin-3-yl)-4-methyl-3,4-dihydro-2H-isoquinolin-1-one] | 63.5 | 0.77 |
| O=C1c2ccc(Cl)cc2CN1c1cccnc1 [Example 108, 5-Chloro-2-pyridin-3-yl-2,3-dihydro-isoindol-1-one] | 163 | 9.78 |
| CC(C)c1nccn1Cc1cncc(N2Cc3cc(Cl)ccc3C2=O)c1 [Example 109, 5-Chloro-2-[5-(2-isopropyl-imidazol-1-ylmethyl)-pyridin-3-yl]-2,3-dihydro-isoindol-1-one] | 229 | 1.35 |

| SMILES | EC50 (human CYP11B2) [nM] | EC50 (human CYP11B1) [µM] |
| --- | --- | --- |
| O=C1c2ccc(Cl)cc2CN1c1cncc(Cn2cncn2)c1 [Example 110, 5-Chloro-2-(5-[1,2,4]triazol-1-ylmethyl-pyridin-3-yl)-2,3-dihydro-isoindol-1-one] | 184 | 1.28 |
| Cc1nccn1Cc1cncc(N2Cc3cc(Cl)ccc3C2=O)c1 [Example 111, 5-Chloro-2-[5-(2-methyl-imidazol-1-ylmethyl)-pyridin-3-yl]-2,3-dihydro-isoindol-1-one] | 64.2 | 0.923 |
| O=C1CCCN1Cc1cncc(N2Cc3cc(Cl)ccc3C2=O)c1 [Example 112, 5-Chloro-2-[5-(2-oxo-pyrrolidin-1-ylmethyl)-pyridin-3-yl]-2,3-dihydro-isoindol-1-one] | 674 | 12 |
| COC[C@@H]1CCCN1Cc1cncc(N2Cc3cc(Cl)ccc3C2=O)c1 [Example 113, 5-Chloro-2-[5-((S)-2-methoxymethyl-pyrrolidin-1-ylmethyl)-pyridin-3-yl]-2,3-dihydro-isoindol-1-one] | 342 | 1.36 |
| O=C1CCCCN1Cc1cncc(N2Cc3cc(Cl)ccc3C2=O)c1 [Example 114, 5-Chloro-2-[5-(2-oxo-piperidin-1-ylmethyl)-pyridin-3-yl]-2,3-dihydro-isoindol-1-one] | 424 | 12.8 |
| CCS(=O)(=O)NCc1cncc(N2Cc3cc(Cl)ccc3C2=O)c1 [Example 115, Ethanesulfonic acid [5-(5-chloro-1-oxo-1,3-dihydro-isoindol-2-yl)-pyridin-3-ylmethyl]-amide] | 682 | 13.5 |
| Cn1ncc2c(N3Cc4cc(Cl)ccc4C3=O)cncc21 [Example 116, 5-Chloro-2-(1-methyl-1H-pyrazolo[3,4-c]pyridin-4-yl)-2,3-dihydro-isoindol-1-one] | 132 | 5.13 |
| O=C1c2ccc(Cl)cc2CN1c1cncc2c1CCCC2O (stereo not shown) [Example 117, 5-Chloro-2-(8-hydroxy-5,6,7,8-tetrahydro-isoquinolin-4-yl)-2,3-dihydro-isoindol-1-one] | 127 | 0.894 |
| CC1c2cc(Cl)ccc2C(=O)N1c1cccnc1 (stereo not shown) [Example 118, 5-Chloro-3-methyl-2-pyridin-3-yl-2,3-dihydro-isoindol-1-one] | 123 | 1.25 |
| COc1cncc(N2C(=O)c3ccc(Cl)cc3C2C)c1 (stereo not shown) [Example 120, 5-Chloro-2-(5-methoxy-pyridin-3-yl)-3-methyl-2,3-dihydro-isoindol-1-one] | 24.7 | 0.207 |
| Cc1ccncc1N1C(=O)c2ccc(Cl)cc2C1C (stereo not shown) [Example 121, 5-Chloro-3-methyl-2-(4-methyl-pyridin-3-yl)-2,3-dihydro-isoindol-1-one] | 7.1 | 0.039 |
| CC(O)c1cncc(N2C(=O)c3ccc(Cl)cc3C2C)c1 (stereo not shown) [Example 122, 5-Chloro-2-[5-(1-hydroxy-ethyl)-pyridin-3-yl]-3-methyl-2,3-dihydro-isoindol-1-one] | 42.3 | 0.18 |
| CC1c2cc(Cl)ccc2C(=O)N1c1cncc(F)c1 (stereo not shown) [Example 123, 5-Chloro-2-(5-fluoro-pyridin-3-yl)-3-methyl-2,3-dihydro-isoindol-1-one] | 122 | 7.73 |
| O=C1c2ccc(Cl)cc2C(Cc2ccccc2)N1c1cccnc1 (stereo not shown) [Example 124, 3-Benzyl-5-chloro-2-pyridin-3-yl-2,3-dihydro-isoindol-1-one] | 1070 | 0.225 |
| CCC1c2cc(Cl)ccc2C(=O)N1c1cccnc1 (stereo not shown) [Example 125, 5-Chloro-3-ethyl-2-pyridin-3-yl-2,3-dihydro-isoindol-1-one] | 121 | 3.34 |
| CCC1c2cc(Cl)ccc2C(=O)N1c1cncc(F)c1 (stereo not shown) [Example 126, 5-Chloro-3-ethyl-2-(5-fluoro-pyridin-3-yl)-2,3-dihydro-isoindol-1-one] | 37.9 | 3.56 |
| CCC1c2cc(Cl)ccc2C(=O)N1c1cncc(OC)c1 (stereo not shown) [Example 127, 5-Chloro-3-ethyl-2-(5-methoxy-pyridin-3-yl)-2,3-dihydro-isoindol-1-one] | 54.5 | 0.266 |
